# Values of other authors as cited in US20240058331A1, “COMBINATION THERAPIES FOR TREATMENT OF CIRRHOSIS WITH PORTAL HYPERTENSION” (priority 2022, published 2024).
# What was measured:
# [1] = sedation for HVPG assessment
# [2] = unlikely to be clinically relevant with standard midazolam dosing
# [3] = biological target: T1, ETB (Homo sapiens, UniProt P24530); settings: up to 50 mM
# T1 sequence (P24530 27-442): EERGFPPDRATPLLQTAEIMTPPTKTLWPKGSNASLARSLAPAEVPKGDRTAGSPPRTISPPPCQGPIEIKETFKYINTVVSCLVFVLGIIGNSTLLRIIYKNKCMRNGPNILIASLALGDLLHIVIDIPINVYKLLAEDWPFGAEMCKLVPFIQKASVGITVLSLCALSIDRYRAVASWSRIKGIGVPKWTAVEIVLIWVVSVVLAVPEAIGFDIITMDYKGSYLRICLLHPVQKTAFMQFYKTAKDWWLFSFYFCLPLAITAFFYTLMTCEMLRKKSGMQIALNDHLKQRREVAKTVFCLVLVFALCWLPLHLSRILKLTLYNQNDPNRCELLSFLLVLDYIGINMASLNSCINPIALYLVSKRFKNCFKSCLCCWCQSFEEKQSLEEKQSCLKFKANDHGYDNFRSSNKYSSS
# [4] = moderate hepatic impairment vs healthy control participants; expected
smiles,measurement,setting,value
CCOc1ccc(Cc2cc([C@@H]3O[C@H](CO)[C@@H](O)[C@H](O)[C@H]3O)ccc2Cl)cc1 [Dapagliflozin],safety or tolerability signals in participants with renal impairment,"10 mg once daily, chronic kidney disease (DAPA-CKD) and heart failure (DAPA HF) populations",did not lead to any unique safety or tolerability signals
same,tolerability in healthy volunteers,doses up to 100 mg for 14 days,tolerable
Cc1ncc2n1-c1ccc(Cl)cc1C(c1ccccc1F)=NC2 [Midazolam],influence on HVPG,[1],does not influence HVPG
COc1nc(C)cnc1NS(=O)(=O)c1cccnc1-c1ccc(-c2nnco2)cc1 [Zibotentan],increase in midazolam exposure,[2],20%
same,effect at the ETB,[3],no effect
same,"exposure, times higher in participants with moderate hepatic impairment compared to healthy control participants",[4],1.45 times
